The values that follow come from paper PMC7179302, “Lead Optimization of Dehydroemetine for Repositioned Use in Malaria” (Antimicrobial Agents and Chemotherapy, 2020).

Counter-ions that a name gives are not always drawn.

The IC50 is the concentration needed to halve the response being measured.

The subject of one series is P. falciparum strain W2. In words: microbe, parasite or virus in culture. The class given is cell-based. The note with it: Plasmodium falciparum, W2, read-out: IC50 (μM) W2. How it is done:
(§1) The cross-resistance assay used relies on the parasites’ incorporation of labeled 3H-hypoxanthine, which is proportional to P. falciparum growth. In vitro cross-resistance of the compounds is measured as the ratio between the IC50 for the tested P. falciparum strain and the IC50 for strain 3D7A. Every replicate from a multidrug-resistant (MDR) strain involved a simultaneous determination using a 3D7A replicate to avoid any artifact linked to experimental conditions.
(§2) The three strains used for the cross-resistance assay were 3D7A, Dd2, and W2, based on their resistance profiles; the assay was carried out by GSK, Tres Cantos. Strain 3D7A is chloroquine sensitive, strain Dd2 is resistant to chloroquine, mefloquine, and pyrimethamine ([57]), and strain W2 is resistant to chloroquine, quinine, pyrimethamine, cycloguanil, and sulfadoxine (from the Malaria Research and Reference Reagent Resource Center [MR4]) ([58]). A culture of red blood cells (RBCs) parasitized by the corresponding strain (0.5% parasitemia, 2% hematocrit) in RPMI 1640, […], and 5 μM hypoxanthine was exposed to 9 dilutions (3-fold serial dilutions) of the compound starting at 5 μM. One hundred microliters of culture volume was plated in 96-well flat-bottom microtiter plates with 0.5 μl drug (200× stock in DMSO). Plates were incubated for 24 h at 37°C, 5% CO2, 5% O2, 90% N2. Next, 3H-hypoxanthine was added and plates were incubated for another 24-h period. After that, parasites were harvested on a glass fiber filter using a TomTec cell harvester 96. Filters were dried, and melt-on scintillator sheets were used to determine the incorporation of 3H-hypoxanthine. Radioactivity was measured using a MicroBeta counter. […] IC50 values were determined using the Grafit 7 program ([41]).

The next series relates to P. falciparum strain Dd2. As to the kind of experiment: microbe, parasite or virus in culture. The class given is cell-based. The note with it: Plasmodium falciparum, DD2, read-out: IC50 (μM) Dd2. How it is done:
as §1, §2

Series [1] relates to P. falciparum strain 3D7A. As to the kind of experiment: 3H-hypoxanthine incorporation assay, strain 3D7A. Type of series: cell-based. The note with it: Plasmodium falciparum; sensitive strain 3D7A, 3H-hypoxanthine incorporation; read-out: IC50 (μM) 3D7A. How it is done:
as §1, §2

Series [2] deals with mitochondrial membrane potential of P. falciparum strain K1 trophozoites. In words: Rhodamine 123 staining for mitochondrial membrane potential, flow cytometry. The class given is cell-based, Plasmodium falciparum. The note with it: deviation from infected blood without drugs. How it is done:
Changes in mitochondrial membrane potential were measured using rhodamine 123 (excitation wavelength, 511 nm; emission wavelength, 534 nm), a membrane-permeating cationic fluorescent dye ([49]), which accumulates by electrostatic attraction in the mitochondria because of its negative transmembrane potential. A change in the dye’s concentration in the mitochondria is caused by a depolarization event and can be visualized as a shift in the fluorescence intensity of rhodamine 123 ([50]). Draq5 (excitation wavelength, 647 nm; emission wavelength, >665 nm) is a far-red fluorescent DNA dye which is cell permeating and was used to distinguish the parasites in flow cytometry in the allophycocyanin (APC)-Cy7-A channel. SYBR green was not preferred for this experiment as it emits in the same channel as rhodamine 123 and would result in the overlap of emission signals. Fluorescence microscopy was used to visualize the localization of rhodamine 123 within the cytoplasm of the parasites (Fig. 9).
A decrease in fluorescence intensity measured in the fluorescein isothiocyanate (FITC)-A channel indicates a loss of mitochondrial membrane potential. Atovaquone, a known mitochondrial inhibitor, was used as a control.
Compounds were then washed away by centrifuging the cultures, and a pellet was prepared for each drug concentration. Pellets were then incubated with 1 ml of 200 nM rhodamine 123 for 1 h, followed by a further incubation with 100 μl of 5 μM Draq5 for 20 min. After a wash with PBS, the experiment was read with a flow cytometer on the FITC channel. Loss of mitochondrial membrane potential was indicated by a decrease in fluorescence intensity.
(In general: In flow cytometry, cells or beads pass a laser one at a time.)

The test system of another series is Entamoeba histolytica. The arrangement: method as in PMID 15610563, PMID 24107123. As to conditions: cited from earlier work.
Series [3] deals with K1 strain of P. falciparum. More on the design: method as in PMID 15610563, PMID 24107123. The note with it: mean ± standard deviation; cited from earlier work.
In a further series the test system is HepG2 cells. In words: MTT assay for cell cytotoxicity against HepG2 cells. As to conditions: HepG2 cells, 48 h; ± SD. The class given is cell-based. How it is done:
HepG2 cells (University of Salford stocks, purchased from American Type Culture Collection [ATCC], USA), were grown in medium consisting of RPMI 1640, 2 mM L-glutamine, HEPES, 10% fetal bovine serum, 1% nonessential amino acids, and 1% penicillin-streptomycin. Cells were calculated on a hemocytometer to make a new cell-medium solution to a concentration of 5,000 cells/100 μl, and 100 μl of this new cell solution was added into each well of the 96-well plate. After 24 h of incubation, 100-μl amounts of the drug prepared in the medium were added to the wells. This was repeated in triplicate, and the plate was incubated for a further 48 h ([56]). After the incubation period, 50 μl of MTT solution was added to each well and incubated for 3 h. The liquid in each well was aspirated carefully, 200 μl of DMSO was added to each well, and the results were read on the Ascent plate reader.
(Tetrazolium dyes change colour on reduction, which living cells bring about.)

Turning to `CC[C@H]1CN2CCc3cc(OC)c(OC)cc3[C@@H]2C[C@@H]1C[C@H]1NCCc2cc(OC)c(OC)cc21` [Emetine dihydrochloride, emetine dihydrochloride, reference compound], the IC50 is 0.181 µM in the series with P. falciparum strain W2; 0.269 µM with P. falciparum strain Dd2; 0.234 µM in series [1]; 26800 ± 1270 nM in the series on Entamoeba histolytica; 47 nM in series [3]. For the same compound, the “Change in fluorescence intensity (FITC-A mean) of rhodamine 123” value is on record as 35.13% in series [2] (at 10× IC50, 2 h) and 31.12% in series [2] (at IC50, 2 h). For the same compound, in the series with HepG2 cells, the “LD50 (50% lethal dose), MTT assay” value came to 199.2 ± 9.3 nM.

Take `O=C1C(O)=C([C@H]2CC[C@H](c3ccc(Cl)cc3)CC2)C(=O)c2ccccc21` [Atovaquone, atovaquone]: the “Change in fluorescence intensity (FITC-A mean) of rhodamine 123” value in series [2] (at 10× IC50, 2 h) stood at 43.17%; in series [2] (at IC50, 2 h), 41.95%.
